test system: EV71 virus strain Shenzhen/120F1/09; assay: EV71 in-vitro cytopathic effect (CPE) test; assay type: cell-based, RD cells of human rhabdomyoma; details: Enterovirus A, 72 h; RD cells, EV71 100 TCID50, 3 days, CCK8 readout; read-out: EC50 by EC71 CPE test, EV71
Experimental: Test of EV71 In-Vitro Cytopathic Effect (CPE) To test the in-vitro antiviral activity and cytotoxicity of a compound to HFMD virus EV71 by means of cytopathic effect (CPE) test. […] Cell line: RD cells of human rhabdomyoma • 3. Cell culture media: DMEM medium added with 10% serum, Penicillin/Streptomycin and L-[…]×) • 4. […] Cell inoculation: digest off the RD cells from the attached state, then dilute them with culture medium to a density of 80000/ml and inoculate 100 μl into the micro wells the 96-well plate. • 2. Dilution of compound: • Step 1: prepare the dry powder of a compound to test into a 10 mM solution in DMSO. Then dilute the compound by three times to eight concentration points. Dilute the reference compounds with the same method. • Step 2: further dilute the diluted solution of the compound in DMSO with cell culture medium. Add 10 μl DMSO solution for each well into 240 μl culture medium. • 3. Add the diluted compound solution by 50 μl each well into the 96-well plate inoculated with cells (double holes, final concentration of DMSO is 1%). • 4. Dilution of virus: dilute EV71 virus solution by 10000 times to a concentration of 100 TCID50/50 μl/. Add the diluted virus solution by 50 μl each well into the 96-well plate. Prepare another 96-well plate to replace the virus with culture medium and similarly inoculate the cells. Add the compound to test the toxicity of compound on cells. • 5. Cultivate the 96-well plate 3 days at the conditions of 37° C. and 5% CO2. • 6. EC50 and CC50 tests: add the cellular activity test reagent CCK8 into the micro-wells by 20 μl/well. Use ELIASA to read the absorbancy at the wavelength of 450 nm and 630 nm. • 7.

| Structure (SMILES) | EC50 [nM] |
| --- | --- |
| O=S1(=O)N(CCCCCOc2ccc(-c3ccc(Cl)cc3)cc2)CCN1c1ccncc1 [Embodiment 6, 2-(5-((4′-chloro-[1,1′-biphenyl]-4-yl)oxy)pentyl)-5-(pyridin-4-yl)-1,2,5-thiadiazolidine-1,1-dioxide] | 50 to 100 |
| CCO/N=C/c1ccc(OCCCCCN2CCN(c3ccncc3)S2(=O)=O)cc1 [Embodiment 7] | < 50 |
| CCO/N=C1\CCc2cc(OCCCCCN3CCN(c4ccncc4)S3(=O)=O)ccc21 [Embodiment 8] | 50 to 100 |
| CCO/N=C/c1ccc(OCCC(C)CCN2CCN(c3ccnc(N)c3)S2(=O)=O)cc1 (centres unmarked) [Embodiment 17, (E)-4-((5-(5-(2-amino-pyridin-4-yl)-1,1-dioxo-1,2,5-thiadiazolidine-2-yl)-3-methyl-pentyl)-oxy)-benzaldehyde-O-ethylketoxime] | < 50 |
| CCO/N=C/c1ccc(OCCCCCCN2CCN(c3ccnc(N)c3)S2(=O)=O)cc1 [Embodiment 25, (E)-4-((6-(5-(2-aminopyridin-4-yl)-1,1-dioxide-1,2,5-thiadiazolidine-2-yl)-hexyl)-oxy)-benzaldehyde-O-ethyl ketoxime] | < 50 |
| CCO/N=C/c1ccc(OCCCCCN2CCN(c3ccnc(C)c3)S2(=O)=O)cc1 [Embodiment 32, (E)-4-((5-(5-(2-methylpyridin-4-yl)-1,1-dioxide-1,2,5-thiadiazol-2-yl)-pentyl)-oxy)-benzaldehyde-O-ethyl ketoxime] | < 50 |
| CCO/N=C/c1ccc(OCCCCCN2CCN(c3ccc(C)nn3)S2(=O)=O)cc1 [Embodiment 33, (E)-4-((5-(5-(6-methyl-pyridazin-3-yl)-1,1-dioxide-1,2,5-thiadiazolidine-2-yl)-pentyl)-oxy)-benzaldehyde-O-ethyl ketoxime] | 100 to 500 |
| CCO/N=C/c1ccc(OCCCCCN2CCN(c3ccc(Cl)nn3)S2(=O)=O)cc1 [Embodiment 34, (E)-4-((5-(5-(6-chloro-pyridazin-3-yl)-1,1-dioxide-1,2,5-thiadiazolidine-2-yl)-pentyl)-oxy)-benzaldehyde-O-ethyl ketoxime] | 500 to 1000 |
| CCO/N=C/c1ccc(OCCCCCN2CCN(c3nccs3)S2(=O)=O)cc1 [Embodiment 35, (E)-4-((5-(1,1-dioxide-5-(thiazol-2-yl)-1,2,5-thiadiazolidine-2-yl)-pentyl)-oxy)-benzaldehyde-O-ethyl ketoxime] | 100 to 500 |
| CCO/N=C/c1ccc(OCCCCCN2CCN(c3cc(N)ncn3)S2(=O)=O)cc1 [Embodiment 38, (E)-4-((5-(5-(6-amino-pyrimidin-4-yl)-1,1-dioxide-1,2,5-thiadiazolidine-2-yl)-pentyl)-oxy)-benzaldehyde-O-ethyl ketoxime] | < 50 |
| CCO/N=C/c1ccc(OCCCCCN2CCN(c3ccnc(F)c3)S2(=O)=O)cc1 [Embodiment 39, (E)-4-((5-(5-(2-Fluoro-4-yl)-1,1-dioxide-1,2,5-thiadiazolidine-2-yl)-pentyl)-oxy)-benzaldehyde-O-ethyl ketoxime] | 50 to 100 |
| CCO/N=C/c1ccc(OCCCCCN2CCN(c3ccnc(NCCO)c3)S2(=O)=O)cc1 [Embodiment 40, (E)-4-((5-(5-(2-((2-hydroxyethyl)-amino)-pyridin-4-yl)-1,1-dioxide-1,2,5-thiadiazolidine-2-yl)-pentyl)-oxy)-benzaldehyde-O-ethyl ketoxime] | < 50 |
| CCO/N=C/c1ccc(OCCCCCN2CCN(c3ccnc(NC)c3)S2(=O)=O)cc1 [Embodiment 41, (E)-4-((5-(5-(2-(methylamino)-pyridin-4-yl)-1,1-dioxide-1,2,5-thiadiazolidine-2-yl)-pentyl)-oxy)-benzaldehyde-O-ethyl ketoxime] | < 50 |
| CCO/N=C/c1ccc(OCCCCCN2CCN(c3ccnc(N4CCC4)c3)S2(=O)=O)cc1 [Embodiment 42, (E)-4-((5-(5-(2-(azetidin-1-yl)-pyridin-4-yl)-1,1-dioxide-1,2,5-thiadiazolidine-2-yl)-pentyl)-oxy)-benzaldehyde-O-ethyl ketoxime] | 100 to 500 |

Other lines, results leading:

| EC50 [nM] | Structure (SMILES) |
| --- | --- |
| 50 to 100 | CCc1nc(-c2ccc(OCCCCCN3CCN(c4ccncc4)S3(=O)=O)cc2)no1 [Embodiment 10, 2-(5-(4-(5-ethyl-1,2,4-oxadiazol-3-yl)-phenoxy)-pentyl)-5-(pyridin-4-yl)-1,2,5-thiadiazolidine-1,1-dioxide] |
| 50 to 100 | CCn1nnc(-c2ccc(OCCCCCN3CCN(c4ccncc4)S3(=O)=O)cc2)n1 [Embodiment 11, 2-(5-(4-(2-ethyl-2H-tetrazol-5-yl)-phenoxy)pentyl)-5-(pyridin-4-yl)-1,2,5-thiadiazolidine-1,1-dioxide] |
| < 50 | CCOc1noc2cc(OCCCCCN3CCN(c4ccncc4)S3(=O)=O)ccc12 [Embodiment 12, 2-(5-((3-ethoxy-benzo[d]isoxazole-6-yl)-oxy)pentyl)-5-(pyridin-4-yl)-1,2,5-thiadiazolidine-1,1-dioxide] |
| 100 to 500 | O=S1(=O)N(CCOCCOc2ccc(-c3ccc(Cl)cc3)cc2)CCN1c1ccncc1 [Embodiment 13, 2-(2-(2-((4′-chloro-[1,1′-biphenyl]-4-yl)oxy)ethoxy)ethyl)-5-(pyridin-4-yl)-1,2,5-thiadiazolidine-1,1-dioxide] |
| < 50 | CCO/N=C/c1ccc(OCCC(C)CCN2CCN(c3ccncc3)S2(=O)=O)cc1 (centres unmarked) [Embodiment 14, (E)-4-((5-(1,1-dioxo-5-(pyridin-4-yl)-1,2,5-thiadiazolidine-2-yl)-3-methyl-pentyl)-oxy)-benzaldehyde-O-ethyloxime] |
| < 50 | CCOc1noc2cc(OCCC(C)CCN3CCN(c4ccncc4)S3(=O)=O)ccc12 (centres unmarked) [Embodiment 15, 2-(5-((3-ethoxy-benzo[d]isoxazole-6-yl)-oxy)-3-methyl-pentyl)-5-(pyridin-4-yl)-1,2,5-thiadiazolidine-1,1-dioxide] |
| < 50 | Nc1cc(N2CCN(CCCCCOc3ccc(-c4ccc(Cl)cc4)cc3)S2(=O)=O)ccn1 [Embodiment 16, 2-(2-aminopyridine-4-yl)-5-(5-((4′-chloro-[1,1′-biphenyl]-4-yl)-oxy)-pentyl)-1,2,5-thiadiazolidine-1,1-dioxide] |
| < 50 | CCOc1noc2cc(OCCCCCN3CCN(c4ccnc(NC)c4)S3(=O)=O)ccc12 [Embodiment 18, 2-(5-((3-ethoxy-benzo[d]isoxazol-6)-oxo)-pentyl)-5-(2-(methylamino)-pyridine-4)-1,2,5-thiadiazoline-1,1-dioxide] |
| 100 to 500 | O=S1(=O)N(CCCCC2CCc3cc(-c4ccc(Cl)cc4)ccc3O2)CCN1c1ccncc1 (centres unmarked) [Embodiment 19, 2-(4-(6-(4-chlorophenyl)-chroman-2-yl)-butyl)-5-(pyridin-4-yl)-1,2,5-thiadiazolidine-1,1-dioxide] |
| < 50 | CCO/N=C/c1ccc2c(c1)CCC(CCCCN1CCN(c3ccncc3)S1(=O)=O)O2 (centres unmarked) [Embodiment 21, (E)-2-(4-(1,1-dioxo-5-(pyridin-4-yl)-1,2,5-thiadiazolidine-2-yl)-butyl)-chroman-6-formaldehyde-O-ethyloxime] |
| 500 to 1000 | Nc1cc(N2CCN(CCCCCOc3ccc(C=O)cc3)S2(=O)=O)ccn1 [Embodiment 24, 4-((5-(5-(2-aminopyridin-4-yl)-1,1-dioxide-1,2,5-thiadiazolidine-2-yl)-pentyl)-oxy)-benzaldehyde] |
| 100 to 500 | CCO/N=C/c1ccc(OCCCCN2CCN(c3ccnc(N)c3)S2(=O)=O)cc1 [Embodiment 26] |
| < 50 | CCn1nnc(-c2ccc(OCCCCCN3CCN(c4ccnc(N)c4)S3(=O)=O)cc2)n1 [Embodiment 27, 4-(5-(5-(4-(2-ethyl-tetrazol-5-yl)-phenoxy)-pentyl)-1,1-dioxide-1,2,5-thiadiazolidine-2-yl)-pyridin-2-amine] |
| < 50 | CCOc1noc2cc(OCCCCCN3CCN(c4ccnc(N)c4)S3(=O)=O)ccc12 [Embodiment 28, 4-(5-(5-((3-ethoxy-1,2-benzoxazol-6-yl)-oxy)-pentyl)-1,1-dioxide-1,2,5-thiadiazolidine-2-yl)-pyridin-2-amine] |
| < 50 | CCO/N=C1\CCc2cc(OCCC(C)(C)CCN3CCN(c4ccnc(N)c4)S3(=O)=O)ccc21 [Embodiment 30, (E)-2-(2-amino-pyridin-4-yl)-5-(5-((1-(ethoxy-imino)-2,3-dihydro-1H-inden-5-yl)-oxy)-3,3-dimethylpentyl)-1,2,5-thiadiazolidine-1,1-dioxide] |
| 100 to 500 | CCO/N=C1\CCc2cc(OCCC(F)(F)CCN3CCN(c4ccnc(N)c4)S3(=O)=O)ccc21 [Embodiment 31, (E)-2-(2-amino-pyridin-4-yl)-5-(5-((1-(ethoxy-imino)-2,3-dihydro-1H-inden-5-yl)-oxy)-3,3-difluoropentyl)-1,2,5-thiadiazolidine-1,1-dioxide] |
| < 50 | CCO/N=C/c1ccc(OCCCCCN2CCN(c3ccnc(NC(C)=O)c3)S2(=O)=O)cc1 [Embodiment 36, (E)-N-(4-(5-(5-(4-((ethoxy-imino)-methyl)-phenoxy)-pentyl)-1,1-dioxide-1,2,5-thiadiazolidine-2-yl)-pyridin-2-yl)-acetamide] |
| 500 to 1000 | CCO/N=C/c1ccc(OCCCCCN2CCN(c3ccnc(C(=O)OC)c3)S2(=O)=O)cc1 [Embodiment 37] |
